Results: PMC3508077 (Bioorganic & medicinal chemistry, 2012)

Experiments:
[1] = tested on: NAD(P)H:quinone reductase 1 (QR1); assay: cells; conditions: Mus musculus, 48 h, read-out: CD (concentration that doubles the activity)
[2] = tested on: NAD(P)H:quinone reductase 1 (QR1); assay: QR1 induction assay in Hepa 1c1c7 murine hepatoma cells; format: cell-based; conditions: Hepa 1c1c7 cells
NF-κB [3] = tested on: NF-κB
[4] = tested on: NAD(P)H:quinone reductase 1 (QR1); conditions: for QR1 induction activity in the mutant cell lines (in words): Taoc1BP^rc1 and BP^rc1 mutant cell lines; for Inducer class (monofunctional / bifunctional): from QR1 induction in Taoc1BP^rc1 and BP^rc1 mutants
[5] = tested on: inducible nitric oxide synthase (iNOS)
NF-κB [6] = conditions: cited from earlier work
[7] = target: T1, human aromatase (CYP19 enzyme) (Homo sapiens, UniProt P11511); conditions: read-out: Aromatase IC50
T1 sequence (P11511 1-503): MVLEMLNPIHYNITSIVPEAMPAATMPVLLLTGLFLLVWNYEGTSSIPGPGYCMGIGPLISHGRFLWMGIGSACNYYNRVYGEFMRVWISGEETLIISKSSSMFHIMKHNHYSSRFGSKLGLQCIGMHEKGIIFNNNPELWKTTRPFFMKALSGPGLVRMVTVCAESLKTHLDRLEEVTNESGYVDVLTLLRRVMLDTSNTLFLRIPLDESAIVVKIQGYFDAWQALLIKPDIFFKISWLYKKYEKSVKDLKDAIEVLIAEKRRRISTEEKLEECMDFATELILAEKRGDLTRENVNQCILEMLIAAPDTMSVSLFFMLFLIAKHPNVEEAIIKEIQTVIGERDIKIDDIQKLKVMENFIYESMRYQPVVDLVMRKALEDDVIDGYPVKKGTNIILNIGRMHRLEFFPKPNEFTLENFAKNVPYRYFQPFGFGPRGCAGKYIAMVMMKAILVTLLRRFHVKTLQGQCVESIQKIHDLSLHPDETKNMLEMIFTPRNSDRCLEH

[8] = tested on: NAD(P)H:quinone reductase 1 (QR1); conditions: cited from earlier work
[9] = target: T1, human aromatase (CYP19 enzyme); conditions: cited from earlier work

## FC(F)(F)c1ccccc1-c1nc(-c2ccccc2)cs1 [Compound 9a, 4-Phenyl-2-[2-(trifluoromethyl)phenyl]thiazole]
[1]
  EC (2-fold QR1 activity): > 50 µM
[2]
  QR1 induction activity (in words): inactive

## COc1cccc(-c2csc(-c3cccc(OC)c3)n2)c1 [Compound 9o]
NF-κB [3]
  NF-κB inhibitory activity (in words): weak
[4]
  QR1 induction activity in the mutant cell lines (in words): not active
[2]
  CD value compared with that of resveratrol (times better): 241 times

## COc1cccc(-c2csc(-c3cccc(Br)c3)n2)c1 [Compound 9w, 2-(3-Bromophenyl)-4-(3-methoxyphenyl)thiazole]
[1]
  EC (2-fold QR1 activity): > 50 µM

## Clc1ccc(Cl)c(-c2nc(-c3ccccc3)cs2)c1 [Compound 9g, 2-(2,5-Dichlorophenyl)-4-phenylthiazole]
[4]
  QR1 induction activity in the mutant cell lines (in words): active

## COc1cccc(-c2csc(-c3ccccc3)n2)c1 [Compound 9n, 4-(3-Methoxyphenyl)-2-phenylthiazole]
NF-κB [3]
  NF-κB inhibitory activity (in words): weak
[4]
  QR1 induction activity in the mutant cell lines (in words): not active
[5]
  Inhibitory activity vs. iNOS (in words): weak

## COc1cccc(-c2nc(-c3ccccc3)cs2)c1 [Compound 9e, 2-(3-Methoxyphenyl)-4-phenylthiazole]
[1]
  EC (2-fold QR1 activity): > 50 µM
NF-κB [3]
  NF-κB inhibitory activity (in words): low micromolar
[4]
  QR1 induction activity in the mutant cell lines (in words): not active
[5]
  Inhibitory activity vs. iNOS (in words): weak

## Fc1ccccc1-c1nsc(-c2ccccc2)n1 [Compound 6b, 3-(2-Fluorophenyl)-5-phenyl-1,2,4-thiadiazole]
[1]
  EC (2-fold QR1 activity): > 50 µM

## CCCCc1ccc(-c2nc(-c3cccc(OC)c3)cs2)cc1 [Compound 9v, 2-(4-n-Butylphenyl)-4-(3-methoxyphenyl)thiazole]
[1]
  EC (2-fold QR1 activity): > 50 µM

## O=c1cc(-c2ccc(Br)cc2)oc2ccccc12 [4′-Bromoflavone, reference compound]
[4]
  Inducer class (monofunctional / bifunctional): bifunctional

## Clc1cccc(Cl)c1-c1nc(-c2ccccc2)cs1 [Compound 9i, 2-(2,6-Dichlorophenyl)-4-phenylthiazole]
[1]
  EC (2-fold QR1 activity): > 50 µM

## COc1cccc(-c2csc(-c3cccc(OC)c3F)n2)c1 [Compound 13a, 2-(2-Fluoro-3-methoxyphenyl)-4-(3-methoxyphenyl)thiazole]
[1]
  EC (2-fold QR1 activity): > 50 µM
[2]
  QR1 induction activity (in words): inactive

## Clc1cccc(-c2nc(-c3ccccc3)cs2)c1Cl [Compound 9c, 2-(2,3-Dichlorophenyl)-4-phenylthiazole]
[4]
  QR1 induction activity in the mutant cell lines (in words): active

## COc1cccc(-c2csc(-c3cc(OC)ccc3F)n2)c1 [Compound 13b, 2-(2-Fluoro-5-methoxyphenyl)-4-(3-methoxyphenyl)thiazole]
[1]
  EC (2-fold QR1 activity): > 50 µM
[2]
  QR1 induction activity (in words): inactive

## Cc1ccc(-c2nc(-c3ccccc3)cs2)c(Br)c1 [Compound 9l, 2-(2-Bromo-4-methylphenyl)-4-phenylthiazole]
[1]
  EC (2-fold QR1 activity): > 50 µM

## c1ccc(-c2nsc(-c3ccccc3)n2)cc1 [Compound 2, 3,5-Diphenyl-1,2,4-thiadiazole]
[1]
  EC (2-fold QR1 activity): > 50 µM
NF-κB [6]
  Activity as an inhibitor of NF-κB (in words): weak
[7]
  IC50: 32.7 ± 3.8 µM
[8]
  CD value compared with resveratrol (times lower): 10 times
[9]
  Activity as an aromatase inhibitor (in words): weak

## COc1cccc(-c2noc(-c3cccc(OC)c3)n2)c1 [Compound 15]
[1]
  EC (2-fold QR1 activity): > 50 µM

## Cc1ccc(Cl)cc1-c1nc(-c2ccccc2)cs1 [Compound 9h, 2-(5-Chloro-2-methylphenyl)-4-phenylthiazole]
[4]
  Inducer class (monofunctional / bifunctional): monofunctional

## CCCCc1ccc(-c2nc(-c3ccccc3)cs2)cc1 [Compound 9m, 2-(4-n-Butylphenyl)-4-phenylthiazole]
[1]
  EC (2-fold QR1 activity): > 50 µM

## Fc1ccccc1-c1nsc(-c2ccccc2F)n1 [Compound 3, 3,5-bis(2-fluorophenyl)-1,2,4-thiadiazole]
[1]
  EC (2-fold QR1 activity): 29.4 ± 1.3 µM
[8]
  CD (concentration that doubles QR1 activity): 1.8 µM
  IR (QR1 induction ratio): 10.5

## Brc1cccc(-c2nc(-c3ccccc3)cs2)c1 [Compound 9d, 2-(3-Bromophenyl)-4-phenylthiazole]
[1]
  EC (2-fold QR1 activity): > 50 µM

## COc1cccc(-c2csc(-c3cc(Cl)ccc3C)n2)c1 [Compound 9u, 2-(5-Chloro-2-methylphenyl)-4-(3-methoxyphenyl)thiazole]
[4]
  Inducer class (monofunctional / bifunctional): monofunctional

## COc1cccc(-c2csc(-c3cccc(Cl)c3Cl)n2)c1 [Compound 9q, 2-(2,3-Dichlorophenyl)-4-(3-methoxyphenyl)thiazole]
[1]
  EC (2-fold QR1 activity): > 50 µM
[4]
  QR1 induction activity in the mutant cell lines (in words): did not display activity

## COc1cccc(-c2csc(-c3cccc(Cl)c3C)n2)c1 [Compound 9p, 2-(3-Chloro-2-methylphenyl)-4-(3-methoxyphenyl)thiazole]
[1]
  EC (2-fold QR1 activity): > 50 µM

## COc1cccc(-c2csc(-c3ccc(C)cc3Br)n2)c1 [Compound 9t, 2-(2-Bromo-4-methylphenyl)-4-(3-methoxyphenyl)thiazole]
[1]
  EC (2-fold QR1 activity): > 50 µM

## COc1cccc(-c2csc(-c3cccc(F)c3F)n2)c1 [Compound 9r, 2-(2,3-Difluorophenyl)-4-(3-methoxyphenyl)thiazole]
[1]
  EC (2-fold QR1 activity): > 50 µM

## Cc1c(Cl)cccc1-c1nc(-c2ccccc2)cs1 [Compound 9f, 2-(3-Chloro-2-methylphenyl)-4-phenylthiazole]
[1]
  EC (2-fold QR1 activity): > 50 µM

## Cc1cc(Cl)ccc1-c1nc(-c2ccccc2)cs1 [Compound 9j, 2-(4-Chloro-2-methylphenyl)-4-phenylthiazole]
[4]
  Inducer class (monofunctional / bifunctional): monofunctional

## COc1cccc(-c2nsc(-c3cccc(OC)c3)n2)c1 [Compound 16]
[1]
  EC (2-fold QR1 activity): > 50 µM
